In ChEMBL document CHEMBL3400142, “Synthesis of nitro(benzo)thiazole acetamides and in vitro antiprotozoal effect against amitochondriate parasites Giardia intestinalis and Trichomonas vaginalis” (Bioorg Med Chem, 2015):

Columns and labels:
Giardia intestinalis [1] = experiment: Giardicidal activity against Giardia intestinalis IMSS:0696:1 compound treated for 48 hrs followed by incubation for 48 hrs in compound-free medium by cell counting; type: functional, organism-based; details: Giardia duodenalis, IMSS:0696:1, 48 h
Giardia duodenalis [2] = experiment: Inhibition of Giardia intestinalis fructose 1,6-bisphosphate aldolase at 400 nM after 2 hrs by spectrophotometry
Trichomonas vaginalis [3] = experiment: Trichomonicidal activity against Trichomonas vaginalis GT3 compound treated for 48 hrs followed by incubation for 48 hrs in compound-free medium by cell counting; type: functional, organism-based; details: GT3, 48 h
[4] = Cytotoxicity against African green monkey Vero cells after 48 hrs by MTT assay; type: cell-based; details: chlorocebus sabaeus
Trichomonas vaginalis [5] = experiment: Ratio of nitazoxanide IC50 to compound IC50 for Trichomonas vaginalis GT3 compound treated for 48 hrs followed by incubation for 48 hrs in compound-free medium by cell counting; type: functional
Trichomonas vaginalis [6] = experiment: Ratio of metronidazole IC50 to compound IC50 for Trichomonas vaginalis GT3 compound treated for 48 hrs followed by incubation for 48 hrs in compound-free medium by cell counting; type: functional
Giardia intestinalis [7] = experiment: Ratio of metronidazole IC50 to compound IC50 for Giardia intestinalis IMSS:0696:1 compound treated for 48 hrs followed by incubation for 48 hrs in compound-free medium by cell counting; type: functional, Giardia duodenalis
Giardia intestinalis [8] = experiment: Ratio of nitazoxanide IC50 to compound IC50 for Giardia intestinalis IMSS:0696:1 compound treated for 48 hrs followed by incubation for 48 hrs in compound-free medium by cell counting; type: functional, Giardia duodenalis
[9] = Selectivity index, ratio of CC50 for african green monkey Vero cells to IC50 for Giardia intestinalis IMSS:0696:1; type: functional
Giardia duodenalis [10] = experiment: Ratio of nitazoxanide IC50 to compound IC50 for Giardia intestinalis fructose 1,6-bisphosphate aldolase at 400 nM after 2 hrs by spectrophotometry

Structure (SMILES)	IC50 (Giardia intestinalis [1]; read-out: IC50) [µM]	inhibition (Giardia duodenalis [2]) [%]	IC50 (Trichomonas vaginalis [3]) [µM]	CC50 at 48 h [4] [µM]	Ratio IC50 (Trichomonas vaginalis [5])	Ratio IC50 (Trichomonas vaginalis [6])	Ratio IC50 (Giardia intestinalis [7])	Ratio IC50 (Giardia intestinalis [8])	IC50 (Giardia intestinalis [1]; read-out: pIC50 (converted)) [µM]	Ratio CC50/IC50 [9]	Ratio IC50 (Giardia duodenalis [10])
O=C(CN1CCCCC1)Nc1ncc([N+](=O)[O-])s1	0.219	5	2.04	> 1000	–	–	–	–	–	–	–
Nc1nc2ccc([N+](=O)[O-])cc2s1	24.4	-0	0.625	607	3	13	–	–	–	–	–
CC(=O)Oc1ccccc1C(=O)Nc1ncc([N+](=O)[O-])s1	–	31	–	–	–	–	–	–	–	–	–
CCN(CC)CC(=O)Nc1nc2ccc([N+](=O)[O-])cc2s1	2.03	-0	3.21	> 1000	–	–	–	–	–	–	–
O=C(CN1CCCC1)Nc1ncc([N+](=O)[O-])s1	0.178	21	6.1	> 1000	–	–	24	5	–	–	–
Nc1ncc([N+](=O)[O-])s1	–	-0	–	–	–	–	–	–	–	–	–
O=C(CN1CCOCC1)Nc1nc2ccc([N+](=O)[O-])cc2s1	3.35	35	0.331	> 1000	–	–	–	–	–	–	–
O=C(Nc1ncc([N+](=O)[O-])s1)c1ccccc1O [TIZOXANIDE]	–	25	–	388	–	–	–	–	–	–	–
O=C(CN1CCOCC1)Nc1ncc([N+](=O)[O-])s1	0.151	54	0.305	> 1000	–	–	35	8	0.151	6622	2
CCN(CC)CC(=O)Nc1ncc([N+](=O)[O-])s1	0.122	66	2.25	> 1000	–	–	44	10	0.123	8196	2
Cc1ncc([N+](=O)[O-])n1CCO [METRONIDAZOLE]	–	–	–	367	–	–	–	–	–	–	–
CC(=O)Nc1ncc([N+](=O)[O-])s1 [NITHIAMIDE]	–	-0	–	> 1000	–	–	–	–	–	–	–
O=C(CN1CCCC1)Nc1nc2ccc([N+](=O)[O-])cc2s1	0.298	10	0.221	> 1000	–	–	–	–	–	–	–
O=C(CN1CCCCC1)Nc1nc2ccc([N+](=O)[O-])cc2s1	2.31	-0	3.43	> 1000	–	–	–	–	–	–	–
